According to patent publication US6605424B1, “Method of detecting inhibitors of agonist-specific desensitization” (Duke University, priority 1989, dated 2003):
Where two headings read alike, the source gives them in different places. No end group written: not given here.

How the values were obtained:
[1] = system: adenylyl cyclase in membranes of A431 cells; assay: cells; conditions: Homo sapiens
Description: FIG. 5. […] Cells were incubated for 10 min with (desensitized) (●) or without (control) (◯) 1 μM (−)-isoproterenol as detailed. Adenylyl cyclase activities of membranes prepared from the cells were measured in the presence of various concentrations of (−)-isoproterenol and were expressed as percent of the activity in the presence of 10 mM NaF. […] Data are means±SEM of three independent experiments.
Desensitization of β2ARs in A431 cells was effected as follows. Permeabilized cells in KG-A buffer (or, for controls, intact cells in PBS) were incubated with or without 1 μM (−)-isoproterenol for 10 min or the indicated times (4×10^7 cells per ml). The incubation was terminated by addition of 10 vol of ice-cold KG buffer (or PBS, respectively), followed by centrifugation at 1000×g for 5 min. After three identical washes, cells were disrupted with a Polytron homogenizer in 5 mM Tris-HCl, pH 7.4/2 mM EDTA. Crude membranes were prepared by spinning the supernatant after low-speed centrifugation (1000×g for 5 min) at 40,000×g for 20 min.
Adenylyl cyclase activity in the membranes was determined as described by Salomon et al (Anal. Biochem. (1974) 58:541-548). The free Mg^2+ concentration in the assay was 4 mM.
Concentration-response curves were analyzed by nonlinear curve-fitting to the Hill equation as described (Lohse et al (1986) Mol. Pharmacol. 30:403-409). Adenylyl cyclase activity was expressed as the percentage of the activity in the presence of 10 mM NaF. Since NaF stimulates adenylyl cyclase via the stimulatory guanine nucleotide binding protein, Gs, this normalizes for effects that occur at the level of Gs or the cyclase (i.e., which effects represent heterologous desensitization). Desensitization was assessed by measuring the loss of maximal stimulation by isoproterenol [determined with 10 μM (−)-isoproterenol] and was calculated as [1−stimulation (desensitized)/stimulation (control)]×100. For example, a decrease from 60% to 40% of NaF-stimulated activity corresponds to a desensitization of [1−(40/60)]×100=33%.

[2] = system: β2ARs in permeabilized A431 cells; assay: Phosphorylation of β2ARs in permeabilized A431 cells; format: cell-based, human; conditions: 1 μM isoproterenol, absence of heparin
Description: FIG. 8. Phosphorylation of β2ARs in permeabilized A431 cells. […] FIG. 8A: Autoradiogram obtained after a 10-day exposure at −70° C. FIG. 8B: Transverse densitometric scan of the autoradiogram.
β2ARs in permeabilized A431 cells were phosphorylated as follows. Permeabilized cells (4×10^8) in 10 ml of KG-A buffer containing 1 mCi (1 Ci=37 GBq) of [γ-^32P]ATP were incubated with or without 1 μM (−)-isoproterenol (and other compounds as indicated) for 10 min at 37° C. All buffers used in these experiments contained 5 μg of soybean tryspin inhibitor, 5 μg of leupeptin, and 10 μg of benzamidine per ml and 0.1 mM phenylmethylsulfonyl fluoride. […] After three identical washing steps, crude membranes were prepared as above.
Aliquots of the samples (≈60 fmol of β2ARs) were desalted over Sephadex G-50 and incubated for 2 hr at 20° C. with 200 pM of the ligand with or without 10 μM alprenolol. Free ligand was removed by desalting as above, and the samples were irradiated with UV light for 3 min. The samples were loaded on the same gel as the samples described above.

[3] = system: β2ARs in permeabilized A431 cells; assay: Desensitization of β2ARs in permeabilized A431 cells; format: cell-based, human
Description: Permeabilization of cells was accomplished as follows. Human epidermoid carcinoma A431 cells were grown to about 95% confluence in Dulbecco's modified Eagle's medium supplemented with 10% fetal calf serum. Cells were harvested with collagenase, washed three times with calcium-free phosphate-buffered saline (PBS), then washed twice in 150 mM potassium glutamate/10 mM Hepes/5 mM EGTA/7 mM MgCl2, pH 7.1 (KG buffer), and finally resuspended in KG buffer supplemented with 5 mM glucose and 2 mM ATP (KG-A buffer) at a density of 4×10^7 cells per ml.
At 4×10^7 cells per ml, about 0.015% digitonin was necessary to achieve permeabilization of >95% cells as assessed by staining with trypan blue. In all experiments, digitonin was added stepwise until >95% of the cells were trypan blue positive.

βAR kinase [4] = target: T1, βAR kinase (Bos taurus, UniProt P21146); assay: Phosphorylation of purified reconstituted β2ARs by purified βAR kinase (Example II); format: biochemical, bovine; conditions: 100 μM
T1 construct: βAR kinase was purified from bovine cerebral cortex; from tissue; host or cells: bovine cerebral cortex
T1 sequence (P21146 1-689): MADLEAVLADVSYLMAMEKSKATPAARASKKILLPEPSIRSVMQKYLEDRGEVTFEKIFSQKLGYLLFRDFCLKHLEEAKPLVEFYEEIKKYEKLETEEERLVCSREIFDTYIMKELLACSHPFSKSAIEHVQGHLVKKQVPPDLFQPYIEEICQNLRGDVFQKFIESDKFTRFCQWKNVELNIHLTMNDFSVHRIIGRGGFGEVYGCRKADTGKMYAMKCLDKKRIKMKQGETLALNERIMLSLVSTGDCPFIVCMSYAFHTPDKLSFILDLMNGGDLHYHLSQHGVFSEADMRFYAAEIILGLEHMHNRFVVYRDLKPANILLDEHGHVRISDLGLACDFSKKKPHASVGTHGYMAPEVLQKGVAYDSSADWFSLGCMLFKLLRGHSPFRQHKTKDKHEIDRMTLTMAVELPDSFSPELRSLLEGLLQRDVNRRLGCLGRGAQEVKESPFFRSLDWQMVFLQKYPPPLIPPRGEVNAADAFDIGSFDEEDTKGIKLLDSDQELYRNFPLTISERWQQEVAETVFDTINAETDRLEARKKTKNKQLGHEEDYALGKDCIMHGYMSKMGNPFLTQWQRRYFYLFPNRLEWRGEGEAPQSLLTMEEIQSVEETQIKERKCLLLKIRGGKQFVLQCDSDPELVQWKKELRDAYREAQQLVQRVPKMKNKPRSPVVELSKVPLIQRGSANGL
Description: FIG. 7. […] (Inset) Relevant section of a representative autoradiogram. Data are means±SEM of three independent experiments. […] Desensitization was measured as the percent loss of stimulation by 10 μM (−)-isoproterenol of adenylyl cyclase activity in membranes. […] Data are means±SEM of four independent experiments.
Purified β2ARs were inserted into phosphatidylcholine vesicles by chromatography on Extracti-gel, followed by polyethylene glycol treatment and centrifugation at 280,000×g for 90 min (Cerione et al (1984) Biochemistry 23:4519-4525). Phosphorylation of the reconstituted receptors by purified βAR kinase was done in the presence of 50 μM (−)-isoproterenol as described (Benovic et al (1987) J. Biol. Chem. 262:9026-9032). Subsequently, the samples were subjected to sodium dodecyl sulfate polyacrylamide gel electrophoresis on 10% gels (Laemmli (1970) Nature 227:680-685). The phosphorylated β2ARs were visualized by autoradiography, and the corresponding bands were cut out and their content of ^32P quantified.

[5] = system: β2ARs in intact A431 cells; assay: Desensitization of β2ARs in intact A431 cells; format: cell-based, human; conditions: data not shown
βAR kinase [6] = target: T1, βAR kinase; assay: Inhibition of β2AR phosphorylation by βAR kinase by synthetic peptides (Example III); format: biochemical, bovine; conditions: β2AR as substrate; read-out: IC50 (μM), first intracellular loop peptides as inhibitors of βAR kinase
Description: FIG. 13. Inhibition of β2AR phosphorylation by synthetic peptides. Reconstituted β2AR (˜0.4 pmol) was incubated for 30 min at 30° with purified βAR kinase (˜30 ng) in the presence of 50 mM Tris-HCl, pH 7.5, 2 mM EDTA, 10 mM NaCl, 5 mM MgCl2, 5 mM sodium phosphate, 50 μM (−)-isoproterenol and 0.10 mM [γ^32P]ATP (2.0 cpm/fmol). Synthetic β2AR peptides were varied from 0 to 1 mM and included CI (Δ), CII (▴), CIII-2 (◯) and CT-1 (●). Reactions were stopped by the addition of […]. ^32P-labeled receptor was determined by cutting and counting the dried gel following autoradiography.
The β2-adrenergic receptor from hamster lung was purified to apparent homogeneity by sequential affinity and high performance liquid chromatography as described (Benovic et al (1984) Biochemistry 23:4510-4518). The purified receptor was reinserted into phosphatidylcholine vesicles as previously described (Cerione et al (1983) Nature 306:562-566). The protein-lipid pellets were resuspended in 20 mM Tris-HCl, pH 7.2, 2 mM EDTA and used as a substrate for the βAR kinase.
βAR kinase was purified from bovine cerebral cortex by modification of a previously described procedure (Benovic et al (1987) J. Biol. Chem. 262:9026-9032). Briefly, 250 g of bovine cortex was homogenized and the resulting high speed supernatant fraction was precipitated with 13-26% ammonium sulfate. This material was initially chromatographed on an Ultrogel AcA34 column equilibrated with 5 mM Tris-HCl, pH 7.5, 2 mM EDTA, 5 μg/ml leupeptin, 5 μg/ml pepstatin, 15 μg/ml benzamidine, 0.2 mM phenylmethyl sulfonyl fluoride (buffer A). The peak activity was diluted 1:1 with buffer A containing 0.02% triton X-100 and applied to a DEAE Sephacel column. Elution was accomplished with a 0-80 mM NaCl gradient in buffer A containing triton X-100. The peak activity was then applied directly to a CM Fractogel column and eluted with a 0-100 mM NaCl gradient in buffer A containing triton X-100. The purified kinase was stored at 4° C.
The inhibition of substrate phosphorylation by βAR kinase in the presence of synthetic peptides was assayed as follows. Reconstituted βAR (0.2-1 pmol/inclubation) was incubated with βAR kinase (10-30 ng) in a buffer containing 50 mM Tris-HCl, pH 7.5, 2 mM EDTA, 10 mM NaCl, 5 mM MgCl2, 5 mM sodium phosphate, 50 μM (−)-isoproterenol, 0.10 mM [γ-^32P]ATP (1-3 cpm/fmol) at 30° C. for 30 min. Synthetic β2AR peptides were varied in concentration from 0 to 2 mM. Reactions were quenched by the addition of SDS sample buffer followed by gel electrophoresis. In some experiments urea treated rod outer segments (Wilden et al (1982) Biochemistry 21:3014-3022; Shichi et al (1978) J. Biol. Chem. 253:7040-7046) were used as the substrate for βAR kinase. To further define the specificity of the peptide inhibition, phosvitin, casein (see Example I) and the synthetic peptides CT-2 and CT-3 were used as substrates for βAR kinase.
SDS polyacrylamide gel electrophoresis was performed by the method of Laemmli (Nature (1970) 227:[…]) using 10 or 15% homogeneous slab gels. SDS sample buffer contained 8% SDS, 10% glycerol, 5% β-mercaptoethanol, 25 mM Tris-HCl, pH 6.5 and 0.003% bromphenol blue. SDS urea polyacrylamide gel electrophoresis was carried out using 6.5 M urea, 0.1% SDS, 100 mM H3PO4, pH 6.8 with Tris-HCl and 9% acrylamide (Swank et al (1971) Anal. Biochem. 39:462). SDS urea sample buffer contained 1% SDS, 8M urea, 10 mM H3PO4, pH 6.8 with Tris-HCl, 1% β-mercaptoethanol and 0.003% bromphenol blue.

Row | Molecule | Emax ([1]; A-431, 10 min, read-out: desensitization (loss of maximal stimulation), 1 μM isoproterenol 10 min 37° C., both intact and permeabilized cells) | EC50 ([1]; A-431, read-out: EC50, adenylyl cyclase stimulation, control intact cells) | EC50 ([1]; A-431, read-out: EC50, adenylyl cyclase stimulation, control permeabilized cells) | EC50 ([1]; A-431, read-out: EC50, adenylyl cyclase stimulation, desensitized intact cells) | EC50 ([1]; A-431, read-out: EC50, adenylyl cyclase stimulation, desensitized permeabilized cells) | Emax ([1]; A-431, read-out: Emax, maximal stimulation over basal in percent of activity with 10 mM NaF, control intact cells) | Emax ([1]; A-431, read-out: Emax, maximal stimulation over basal in percent of activity with 10 mM NaF, control permeabilized cells) | Emax ([1]; A-431, read-out: Emax, maximal stimulation over basal in percent of activity with 10 mM NaF, desensitized intact cells) | Emax ([1]; A-431, read-out: Emax, maximal stimulation over basal in percent of activity with 10 mM NaF, desensitized permeabilized cells) | increase in the phosphorylation of the β2ARs [2] | Inhibition of Desensitization, % ([3]; 100 μM) | effect on time course of desensitization ([3]; 100 μM peptide, 1 μM (−)-isoproterenol) | inhibition at 100 µM (βAR kinase [4]) | effect on desensitization in intact cells [5] | IC50 (βAR kinase [6])
1 | CC(C)NC[C@H](O)c1ccc(O)c(O)c1 [isoproterenol, (−)-isoproterenol] | ~30% | 200 nM | 130 nM | 300 nM | 190 nM | 56% | 62% | 40% | 43% | 5 fold |  |  |  |  | 
2 | AIAKFERLQTVTNYF [β2AR-(57-71)] |  |  |  |  |  |  |  |  |  |  | 52 ± 12% | markedly slowed the rate of desensitization | 80 ± 13% | Neither compound affected desensitization | 62 µM
